# Where two headings read alike, the source gives them in different places.
# Experiments:
# [1] = test system: symptoms of BPH; test: Study D: 8 mg Silodosin Once Daily (SI04009), U.S. Phase 3 Study; assay type: in vivo, human; conditions: 8 mg once daily
# Excerpt: (§1) In addition, the results for IPSS/AUASS for studies A, B, D and E are illustrated in FIGS. 3 to 6, respectively, and the results for Qmax for studies A, B, D and E are illustrated in FIGS. 7 to 10, respectively.
# [2] = Pharmacokinetic Study on Silodosin (Study 98364); assay type: in vivo; conditions: human, plasma, 4 mg; for concentration at 2 h: Day 7, 2 h; for concentration at 3 h: Day 7, 3 h; for concentration at 4 h: Day 7, 4 h; for concentration at 5 h: Day 7, 5 h; for concentration at 6 h: Day 7, 6 h; for concentration at 8 h: Day 7, 8 h; for concentration at 0 h: Day 7, 0 h (t0); for concentration at 0.5 h: Day 7, 0.5 h; for concentration at 1 h: Day 7, 1 h; for concentration at 12 h: Day 7, 12 h; for concentration at 24 h: Day 7, 24 h
# Excerpt: The remaining two subjects in each dosing cohort received placebo.
# [3] = Pharmacokinetic Study on Silodosin (Study US011), once daily for seven days, fed state; conditions: for Cmax: Day 7, mean (SD)
# [4] = test system: symptoms of BPH; test: Study E: 8 mg Silodosin Once Daily (SI04010), U.S. Phase 3 Study; assay type: in vivo, human; conditions: 8 mg once daily
# Excerpt: as §1
# [5] = clinical; conditions: male, human
# [6] = test system: symptoms of BPH; test: Study B: 4 mg Silodosin Twice Daily (KMD-303), Japanese Phase 3 Study; assay type: in vivo, human; conditions: 4 mg twice daily
# Method: Safety was assessed by monitoring adverse events, clinical laboratory measurements, vital signs, and physical exams. […] In addition, the results for IPSS/AUASS for studies A, B, D and E are illustrated in FIGS. 3 to 6, respectively, and the results for Qmax for studies A, B, D and E are illustrated in FIGS. 7 to 10, respectively.
# [7] = test system: LUTS associated with benign prostatic hyperplasia; conditions: 4 mg silodosin twice daily; cited from earlier work
# [8] = 4 mg once daily 7 days, individual subjects, read-out: Blood Plasma Concentrations
# [9] = male, 4 mg once daily 7 days, mean, read-out: Blood Plasma Concentrations
# [10] = male, 4 mg twice daily 7 days (simulated from Table 1a), read-out: Estimated Blood Plasma Concentrations
# [11] = immediate-release dosage form once daily, steady state
structure (smiles),measurement,setting,value
C[C@H](Cc1cc2c(c(C(N)=O)c1)N(CCCO)CC2)NCCOc1ccccc1OCC(F)(F)F [Silodosin],Incidence of Adverse Events: Dizziness,[1],2.6 % of patients
same,Incidence of Adverse Events: Orthostatic Hypotension,[1],2.6 % of patients
same,Incidence of Adverse Events: Syncope,[1],0 % of patients
same,Mean Change From Baseline (CFB) in Maximum Flow Rate,[1]; 2-6 hrs after 1st dose,2.7 mL/s
same,IPSS/AUASS baseline value,[1]; Week 0,21.5
same,Maximum Flow Rate baseline value,[1]; Week 0,9.0 mL/s
same,Mean Change From Baseline (CFB) in IPSS/AUASS,[1]; Week 0.5,−3.9
same,Mean Change From Baseline (CFB) in IPSS/AUASS,[1]; Week 1,−4.5
same,Mean Change From Baseline (CFB) in Maximum Flow Rate,[1]; Week 1,2.2 mL/s
same,Mean Change From Baseline (CFB) in IPSS/AUASS,[1]; Week 2,−5.3
same,Mean Change From Baseline (CFB) in Maximum Flow Rate,[1]; Week 2,2.6 mL/s
same,Mean Change From Baseline (CFB) in IPSS/AUASS,[1]; Week 4,−5.9
same,Mean Change From Baseline (CFB) in Maximum Flow Rate,[1]; Week 4,2.4 mL/s
same,Mean Change From Baseline (CFB) in IPSS/AUASS,[1]; Week 12,−6.7
same,Mean Change From Baseline (CFB) in Maximum Flow Rate,[1]; Week 12,2.1 mL/s
same,concentration at 2 h,[2]; [8],35.3 ng/mL
same,concentration at 3 h,[2]; [8],24.4 ng/mL
same,concentration at 4 h,[2]; [8],16.6 ng/mL
same,concentration at 5 h,[2]; [8],13.3 ng/mL
same,concentration at 6 h,[2]; [8],8.9 ng/mL
same,concentration at 8 h,[2]; [8],6.14 ng/mL
same,concentration at 0 h,[2]; [9],4.63 ng/mL
same,concentration at 0.5 h,[2]; [9],5.57 ng/mL
same,concentration at 1 h,[2]; [9],21.2 ng/mL
same,concentration at 2 h,[2]; [9],31.5 ng/mL
same,concentration at 3 h,[2]; [9],18.4 ng/mL
same,concentration at 4 h,[2]; [9],13 ng/mL
same,concentration at 5 h,[2]; [9],10.3 ng/mL
same,concentration at 6 h,[2]; [9],7.26 ng/mL
same,concentration at 8 h,[2]; [9],5.45 ng/mL
same,concentration at 12 h,[2]; [9],3.31 ng/mL
same,concentration at 24 h,[2]; [9],2.01 ng/mL
same,concentration at […],"[2]; male, 4 mg once daily 7 days, Day 7, […], mean, read-out: Blood Plasma Concentrations",4.67 ng/mL
same,concentration at 0 h,[2]; [10],4.63 ng/mL
same,concentration at 0.5 h,[2]; [10],5.57 ng/mL
same,concentration at 1 h,[2]; [10],21.2 ng/mL
same,concentration at 2 h,[2]; [10],31.5 ng/mL
same,concentration at 3 h,[2]; [10],18.4 ng/mL
same,concentration at 4 h,[2]; [10],13 ng/mL
same,concentration at 5 h,[2]; [10],10.3 ng/mL
same,concentration at 6 h,[2]; [10],7.26 ng/mL
same,concentration at 8 h,[2]; [10],5.45 ng/mL
same,concentration at 12 h,[2]; [10],3.31 ng/mL
same,concentration at 12.25 h,"[2]; male, 4 mg twice daily 7 days (simulated from Table 1a), Day 7, 12.25 h, read-out: Estimated Blood Plasma Concentrations",4.67 ng/mL
same,concentration at 13 h,"[2]; male, 4 mg twice daily 7 days (simulated from Table 1a), Day 7, 13 h, read-out: Estimated Blood Plasma Concentrations",21.2 ng/mL
same,concentration at 14 h,"[2]; male, 4 mg twice daily 7 days (simulated from Table 1a), Day 7, 14 h, read-out: Estimated Blood Plasma Concentrations",31.5 ng/mL
same,concentration at 15 h,"[2]; male, 4 mg twice daily 7 days (simulated from Table 1a), Day 7, 15 h, read-out: Estimated Blood Plasma Concentrations",18.4 ng/mL
same,concentration at 16 h,"[2]; male, 4 mg twice daily 7 days (simulated from Table 1a), Day 7, 16 h, read-out: Estimated Blood Plasma Concentrations",13 ng/mL
same,concentration at 17 h,"[2]; male, 4 mg twice daily 7 days (simulated from Table 1a), Day 7, 17 h, read-out: Estimated Blood Plasma Concentrations",10.3 ng/mL
same,concentration at 18 h,"[2]; male, 4 mg twice daily 7 days (simulated from Table 1a), Day 7, 18 h, read-out: Estimated Blood Plasma Concentrations",4.63 ng/mL
same,concentration at 20 h,"[2]; male, 4 mg twice daily 7 days (simulated from Table 1a), Day 7, 20 h, read-out: Estimated Blood Plasma Concentrations",4.67 ng/mL
same,concentration at 24 h,[2]; [10],5.57 ng/mL
same,AUC,"[3]; 4 mg once daily, Day 1, mean",169.0 ng/mL
same,Mean Tmax,"[3]; 4 mg once daily, Day 7",3.0 h
same,AUC,"[3]; 4 mg once daily, Day 7, mean",171 ng/mL
same,t ½,"[3]; 4 mg once daily, Day 7, mean",12.5 h
same,Cmax,[3]; 4 mg once daily,37.2 (18.7) ng/ml
same,AUC,"[3]; 8 mg once daily, Day 1, mean",413.0 ng/mL
same,AUC,"[3]; 8 mg once daily, Day 7, mean",396 ng/mL
same,t ½,"[3]; 8 mg once daily, Day 7, mean",10.6 h
same,Cmax,[3]; 8 mg once daily,73.4 (32.4) ng/ml
same,time after administration at which Cmax is reached,[3]; [11],about 2 hours
same,time after administration at which plasma concentration falls to near baseline,[3]; [11],about 12 hours
same,Incidence of Adverse Events: Dizziness,[4],3.9 % of patients
same,Incidence of Adverse Events: Orthostatic Hypotension,[4],2.6 % of patients
same,Mean Change From Baseline (CFB) in Maximum Flow Rate,[4]; 2-6 hrs after 1st dose,2.9 mL/s
same,IPSS/AUASS baseline value,[4]; Week 0,21.2
same,Maximum Flow Rate baseline value,[4]; Week 0,8.4 mL/s
same,Mean Change From Baseline (CFB) in IPSS/AUASS,[4]; Week 0.5,−4.4
same,Mean Change From Baseline (CFB) in IPSS/AUASS,[4]; Week 1,−5.0
same,Mean Change From Baseline (CFB) in Maximum Flow Rate,[4]; Week 1,2.9 mL/s
same,Mean Change From Baseline (CFB) in IPSS/AUASS,[4]; Week 2,−5.6
same,Mean Change From Baseline (CFB) in Maximum Flow Rate,[4]; Week 2,2.9 mL/s
same,Mean Change From Baseline (CFB) in IPSS/AUASS,[4]; Week 4,−6.2
same,Mean Change From Baseline (CFB) in Maximum Flow Rate,[4]; Week 4,2.7 mL/s
same,Mean Change From Baseline (CFB) in IPSS/AUASS,[4]; Week 12,−6.6
same,Mean Change From Baseline (CFB) in Maximum Flow Rate,[4]; Week 12,3.1 mL/s
same,Incidence of Adverse Events: Syncope,"[4]; one subject, using excluded medication Prazosin",0.4^1 % of patients
same,concentration at 12 h,"[5]; in vivo, 8 mg",9.45 ng/mL
same,Cmax,"[5]; plasma, 4 mg",27.6 ng/mL
same,Tmax,"[5]; plasma, 4 mg",2 h
same,concentration at 0.3 h,"[5]; plasma, 4 mg",0 ng/mL
same,concentration at 8 h,"[5]; plasma, 4 mg",4.83 ng/mL
same,concentration at 12.25 h,"[5]; plasma, 4 mg",1.8 ng/mL
same,concentration at 13 h,"[5]; plasma, 4 mg",9.77 ng/mL
same,concentration at 14 h,"[5]; plasma, 4 mg",31.5 ng/mL
same,concentration at 15 h,"[5]; plasma, 4 mg",32.5 ng/mL
same,concentration at 18 h,"[5]; plasma, 4 mg",7.89 ng/mL
same,concentration at 20 h,"[5]; plasma, 4 mg",5.93 ng/mL
same,half-life,"[5]; plasma, 4 mg",10.7 h
same,Cmax,"[5]; plasma, 8 mg",63.2 ng/mL
same,Tmax,"[5]; plasma, 8 mg",1.5 h
same,concentration at 145.5 h,"[5]; plasma, 8 mg",67.9 ng/mL
same,half-life,"[5]; plasma, 8 mg",11.2 h
same,concentration at 2 h,"[5]; plasma, oral, 8 mg",54.6 ng/mL
same,concentration at 3 h,"[5]; plasma, oral, 8 mg",42.8 ng/mL
same,concentration at 4 h,"[5]; plasma, oral, 8 mg",33.2 ng/mL
same,concentration at 6 h,"[5]; plasma, oral, 8 mg",18.5 ng/mL
same,Incidence of Adverse Events: Dizziness,[6],2.3 % of patients
same,Incidence of Adverse Events: Orthostatic Hypotension,[6],3.4 % of patients
same,Incidence of Adverse Events: Syncope,[6],0 % of patients
same,IPSS/AUASS baseline value,[6]; Week 0,17.1
same,Maximum Flow Rate baseline value,[6]; Week 0,9.89 mL/s
same,Mean Change From Baseline (CFB) in IPSS/AUASS,[6]; Week 1,−3.4
same,Mean Change From Baseline (CFB) in IPSS/AUASS,[6]; Week 2,−4.9
same,Mean Change From Baseline (CFB) in Maximum Flow Rate,[6]; Week 2,2.23 mL/s
same,Mean Change From Baseline (CFB) in IPSS/AUASS,[6]; Week 4,−6.3
same,Mean Change From Baseline (CFB) in Maximum Flow Rate,[6]; Week 4,2.18 mL/s
same,Mean Change From Baseline (CFB) in IPSS/AUASS,[6]; Week 8,−7.7
same,Mean Change From Baseline (CFB) in Maximum Flow Rate,[6]; Week 8,2.38 mL/s
same,Mean Change From Baseline (CFB) in IPSS/AUASS,[6]; Week 12,−8.9
same,Mean Change From Baseline (CFB) in Maximum Flow Rate,[6]; Week 12,2.33 mL/s
same,efficacy in treating LUTS associated with BPH compared with 0.2 mg tamsulosin once daily,[7],comparable efficacy

# — patent US20110319464A1, “METHODS FOR TREATING BENIGN PROSTATIC HYPERPLASIA” (KISSEI PHARMACEUTICAL CO., LTD., priority 2007, published 2011)
